# Measured values as given in US20250248979A1, “NOVEL GPX4 INHIBITORS AND USES THEREOF” (THE TRUSTEES OF COLUMBIA UNIVERSITY IN THE CITY OF NEW YORK, priority 2022, published 2025).
# Target: T1, GPX4 (Homo sapiens, UniProt P36969)
# T1 sequence (P36969 1-170 isoform P36969-2): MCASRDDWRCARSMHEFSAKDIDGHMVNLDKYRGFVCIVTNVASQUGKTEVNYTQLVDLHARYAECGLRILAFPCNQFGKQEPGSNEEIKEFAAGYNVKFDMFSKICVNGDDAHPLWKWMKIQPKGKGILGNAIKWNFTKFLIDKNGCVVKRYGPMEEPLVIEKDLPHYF
# Assay: GPX4 activity assay in cell lysates (NADPH-coupled)
# Format: biochemical
# Parameters: endogenous in cells; host or cells: A-673 cell lysate
# Settings: 2.5 μM
# Summary of the method: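 Native GPX4 in lysates of A-673 cells grown with 20 nM sodium selenite; lysate preincubated with compound 45 min at 37 °C in pH 8.0 buffer with 3 mM GSH, 0.5 mM NADPH and glutathione reductase. Reaction started with phosphatidylcholine hydroperoxide; NADPH consumption followed at 340 nm over 25 min; triplicates.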
row,GPX4% inhibition at 2.5 μM,Compound
1,4.6 ± 14.4%,COc1c(F)cc(-c2ccc3c(C(=O)NC(C)(C)C(C)(C)OC(=O)CCl)nn(C)c3c2)cc1Cl [QW-796]
2,58.1 ± 9.2%,COc1c(F)cc(-c2ccc3c(-n4cc(C(C)(C)COC(=O)CCl)nn4)nn(C)c3c2)cc1Cl [QW-801]
3,−17.0 ± 28.7%,COc1c(Cl)cc(-c2ccc3c(C(=O)NC(C)(C)C(C)(C)OC(=O)CCl)nn(C)c3c2)cc1C(F)(F)F [QW-813]
4,79.3 ± 5.5%,COc1c(Cl)cc(-c2ccc3c(C(=O)NC(C)(C)COC(=O)CCl)nn(C)c3c2)cc1C(F)(F)F [QW-815]

# Same assay, conditions: 2.5 μM; 4th generation
row,Compound,GPX4% inhibition at 2.5 μM
1,COc1ccc(-c2ccc3c(C(=O)NC(C)(C)C(C)(C)OC(=O)CCl)nn(Cc4ccc(Cl)cc4)c3c2)cc1Cl [QW-809],34.6 ± 29.6%

# Same assay, conditions: 5 μM
row,GPX4% inhibition at 5 μM,Compound
1,75.0 ± 5.6%,Cn1nc(C(=O)NC(C)(C)COC(=O)CCl)c2ccc(-c3cc4ccccc4s3)cc21 [QW-470]

# Tested on: HT-1080 cells
# Assay: Cellular dose response assay, HT-1080 with and without Fer-1
# Format: cell-based, human
# Settings: HT1080 + Fer-1; read-out: IC50 (uM) HT1080 + Fer-1
# Text: HT-1080 (human [Homo sapiens] […] fibrosarcoma), A-673 (human [Homo sapiens] […] Ewing's sarcoma), and SK-HEP-1 (human [Homo sapiens] […] hepatic adenocarcinoma), cells were obtained from ATCC. Huh7 (human [Homo sapiens] […] hepatocellular carcinoma), HLF (human [Homo sapiens] […] hepatocellular carcinoma), HepG2 (human [Homo sapiens] […] hepatocellular carcinoma), cells were obtained from the Cancer Cell Bank at Columbia University Irving Medical Center. HT-1080, A-673, Huh-7, and HLF cells were grown in Dulbecco's Modified Eagle Medium (DMEM) supplemented with 10% heat inactivated fetal bovine serum (HI-FBS), 1% non-essential amino acids, and 1% penicillin streptomycin. HepG2 and SK-HEP-1 cells were grown in Eagle's Minimum Essential Medium (EMEM) supplemented with 10% HI-FBS, and 1% penicillin-streptomycin. All cells were cultured at 37° C. and 5% CO2.
# HT-1080, HepG2, Huh7, HLF, and SK-HEP-1 cells were seeded into opaque white 384-well plates at 1500 cells per well then incubated at 37° C. with 5% CO2 overnight. The next day, compounds of interest were dissolved in DMSO and 12-point 2-fold dilution series were prepared with and without Fer-1. Cells were treated in triplicate (final DMSO concentration of 0.4% in all wells, including DMSO-only control wells) and incubated for a further 48 hours at 37° C. and 5% CO2. Cell viability was evaluated using CellTiter-Glo (Promega G7573) and luminescence was recorded on a Victor 5 plate reader. Data were analyzed in GraphPad Prism 9 and error bars represent standard deviation values for three technical replicates in a representative experiment.
row,IC50,Compound
1,17.3 µM,Cn1nc(C(=O)NC(C)(C)COC(=O)CCl)c2ccc(-c3cc4ccccc4s3)cc21 [QW-470]
2,2.6 µM,COc1c(F)cc(-c2ccc3c(C(=O)NC(C)(C)C(C)(C)OC(=O)CCl)nn(C)c3c2)cc1Cl [QW-796]
3,14.3 µM,COc1c(F)cc(-c2ccc3c(-n4cc(C(C)(C)COC(=O)CCl)nn4)nn(C)c3c2)cc1Cl [QW-801]
4,3 µM,COc1c(Cl)cc(-c2ccc3c(C(=O)NC(C)(C)C(C)(C)OC(=O)CCl)nn(C)c3c2)cc1C(F)(F)F [QW-813]
5,16.7 µM,COc1c(Cl)cc(-c2ccc3c(C(=O)NC(C)(C)COC(=O)CCl)nn(C)c3c2)cc1C(F)(F)F [QW-815]

# Same assay, conditions: HT1080, without Fer-1; read-out: IC50 (uM) HT1080
row,IC50,Compound
1,1.7 µM,Cn1nc(C(=O)NC(C)(C)COC(=O)CCl)c2ccc(-c3cc4ccccc4s3)cc21 [QW-470]
2,2.4 µM,COc1c(F)cc(-c2ccc3c(C(=O)NC(C)(C)C(C)(C)OC(=O)CCl)nn(C)c3c2)cc1Cl [QW-796]
3,8.4 µM,COc1c(F)cc(-c2ccc3c(-n4cc(C(C)(C)COC(=O)CCl)nn4)nn(C)c3c2)cc1Cl [QW-801]
4,2.1 µM,COc1c(Cl)cc(-c2ccc3c(C(=O)NC(C)(C)C(C)(C)OC(=O)CCl)nn(C)c3c2)cc1C(F)(F)F [QW-813]
5,0.58 µM,COc1c(Cl)cc(-c2ccc3c(C(=O)NC(C)(C)COC(=O)CCl)nn(C)c3c2)cc1C(F)(F)F [QW-815]

# Same assay, conditions: RSL3 as control
row,Compound,"ferroptosis induction / potency in HT-1080 cells, result in words"
1,COc1c(Cl)cc(-c2ccc3c(C(=O)NC(C)(C)COC(=O)CCl)nn(C)c3c2)cc1C(F)(F)F [QW-815],sub-molar range cellular activities and decreased ferroptosis selectivity
2,CC(=O)OCC(C)(C)NC(=O)c1nn(Cc2cc(Cl)cc(Cl)c2)c2cc(-c3ccc(N4CCOCC4)c(Cl)c3)ccc12 [QW-999],inactive in cellular assay

# Same assay, conditions: ferroptosis selectivity, HT1080 + Fer-1 vs HT1080
row,Compound,Selectivity
1,Cn1nc(C(=O)NC(C)(C)COC(=O)CCl)c2ccc(-c3cc4ccccc4s3)cc21 [QW-470],10.2
2,COc1c(F)cc(-c2ccc3c(C(=O)NC(C)(C)C(C)(C)OC(=O)CCl)nn(C)c3c2)cc1Cl [QW-796],1.1
3,COc1c(F)cc(-c2ccc3c(-n4cc(C(C)(C)COC(=O)CCl)nn4)nn(C)c3c2)cc1Cl [QW-801],1.7
4,COc1c(Cl)cc(-c2ccc3c(C(=O)NC(C)(C)C(C)(C)OC(=O)CCl)nn(C)c3c2)cc1C(F)(F)F [QW-813],1.4
5,COc1c(Cl)cc(-c2ccc3c(C(=O)NC(C)(C)COC(=O)CCl)nn(C)c3c2)cc1C(F)(F)F [QW-815],28.8

# Same assay, conditions: ferroptosis selectivity, IC50 with Fer-1 / IC50
row,Compound,Selectivity
1,COc1ccc(-c2ccc3c(C(=O)NC(C)(C)C(C)(C)OC(=O)CCl)nn(Cc4ccc(Cl)cc4)c3c2)cc1Cl [QW-809],1.5
2,CC(C)(COC(=O)CCl)NC(=O)c1nn(Cc2cc(Cl)cc(Cl)c2)c2cc(-c3ccc(OC(F)(F)F)c(Cl)c3)ccc12 [QW-991],32.0
3,COC(=O)c1ccc(-c2ccc3c(C(=O)NC(C)(C)COC(=O)CCl)nn(Cc4cc(Cl)cc(Cl)c4)c3c2)cc1Cl [QW-992],7.5
4,CC(C)(COC(=O)CCl)NC(=O)c1nn(Cc2cc(Cl)cc(Cl)c2)c2cc(-c3ccc(C(F)(F)F)c(Cl)c3)ccc12 [QW-995],1.1
5,CC(C)Oc1c(Cl)cc(-c2ccc3c(C(=O)NC(C)(C)COC(=O)CCl)nn(Cc4cc(Cl)cc(Cl)c4)c3c2)cc1Cl [QW-996],17.8
6,COc1c(Cl)cc(-c2ccc3c(C(=O)NC(C)(C)COC(=O)CCl)nn(Cc4cc(Cl)cc(Cl)c4)c3c2)cc1Cl [QW-998],>114.3
7,CC(C)(COC(=O)CBr)NC(=O)c1nn(Cc2cc(Cl)cc(Cl)c2)c2cc(-c3ccc(N4CCOCC4)c(Cl)c3)ccc12 [QW-1004],2.3

# Same assay, conditions: with Fer-1; Table 10; read-out: IC50 (μM) HT1080 + Fer-1
row,Compound,IC50
1,COc1ccc(-c2ccc3c(C(=O)NC(C)(C)C(C)(C)OC(=O)CCl)nn(Cc4ccc(Cl)cc4)c3c2)cc1Cl [QW-809],6.5 µM
2,CC(C)(COC(=O)CCl)NC(=O)c1nn(Cc2cc(Cl)cc(Cl)c2)c2cc(-c3ccc(OC(F)(F)F)c(Cl)c3)ccc12 [QW-991],21.1 µM
3,COC(=O)c1ccc(-c2ccc3c(C(=O)NC(C)(C)COC(=O)CCl)nn(Cc4cc(Cl)cc(Cl)c4)c3c2)cc1Cl [QW-992],23.3 µM
4,CC(C)(COC(=O)CCl)NC(=O)c1nn(Cc2cc(Cl)cc(Cl)c2)c2cc(-c3ccc(C(F)(F)F)c(Cl)c3)ccc12 [QW-995],47.1 µM
5,CC(C)Oc1c(Cl)cc(-c2ccc3c(C(=O)NC(C)(C)COC(=O)CCl)nn(Cc4cc(Cl)cc(Cl)c4)c3c2)cc1Cl [QW-996],12.8 µM
6,COc1c(Cl)cc(-c2ccc3c(C(=O)NC(C)(C)COC(=O)CCl)nn(Cc4cc(Cl)cc(Cl)c4)c3c2)cc1Cl [QW-998],> 40 µM
7,CC(=O)OCC(C)(C)NC(=O)c1nn(Cc2cc(Cl)cc(Cl)c2)c2cc(-c3ccc(N4CCOCC4)c(Cl)c3)ccc12 [QW-999],> 40 µM
8,CC(C)(COC(=O)C(Cl)Cl)NC(=O)c1nn(Cc2cc(Cl)cc(Cl)c2)c2cc(-c3ccc(N4CCOCC4)c(Cl)c3)ccc12 [QW-1000],> 40 µM
9,COC(=O)/C=C/C(=O)OCC(C)(C)NC(=O)c1nn(Cc2cc(Cl)cc(Cl)c2)c2cc(-c3ccc(N4CCOCC4)c(Cl)c3)ccc12 [QW-1001],> 40 µM
10,CC=CC(=O)OCC(C)(C)NC(=O)c1nn(Cc2cc(Cl)cc(Cl)c2)c2cc(-c3ccc(N4CCOCC4)c(Cl)c3)ccc12 [QW-1002],> 40 µM
11,CC(C)(COC(=O)CBr)NC(=O)c1nn(Cc2cc(Cl)cc(Cl)c2)c2cc(-c3ccc(N4CCOCC4)c(Cl)c3)ccc12 [QW-1004],8.9 µM
12,CC(C)(COC(=O)c1ccc(S(C)(=O)=O)c([N+](=O)[O-])c1)NC(=O)c1nn(Cc2cc(Cl)cc(Cl)c2)c2cc(-c3ccc(N4CCOCC4)c(Cl)c3)ccc12 [QW-1006],> 40 µM

# Same assay, conditions: without Fer-1; Table 10; read-out: IC50 (μM) HT1080
row,Compound,IC50
1,COc1ccc(-c2ccc3c(C(=O)NC(C)(C)C(C)(C)OC(=O)CCl)nn(Cc4ccc(Cl)cc4)c3c2)cc1Cl [QW-809],4.2 µM
2,CC(C)(COC(=O)CCl)NC(=O)c1nn(Cc2cc(Cl)cc(Cl)c2)c2cc(-c3ccc(OC(F)(F)F)c(Cl)c3)ccc12 [QW-991],0.66 µM
3,COC(=O)c1ccc(-c2ccc3c(C(=O)NC(C)(C)COC(=O)CCl)nn(Cc4cc(Cl)cc(Cl)c4)c3c2)cc1Cl [QW-992],3.1 µM
4,CC(C)(COC(=O)CCl)NC(=O)c1nn(Cc2cc(Cl)cc(Cl)c2)c2cc(-c3ccc(C(F)(F)F)c(Cl)c3)ccc12 [QW-995],42.3 µM
5,CC(C)Oc1c(Cl)cc(-c2ccc3c(C(=O)NC(C)(C)COC(=O)CCl)nn(Cc4cc(Cl)cc(Cl)c4)c3c2)cc1Cl [QW-996],0.72 µM
6,COc1c(Cl)cc(-c2ccc3c(C(=O)NC(C)(C)COC(=O)CCl)nn(Cc4cc(Cl)cc(Cl)c4)c3c2)cc1Cl [QW-998],0.35 µM
7,CC(=O)OCC(C)(C)NC(=O)c1nn(Cc2cc(Cl)cc(Cl)c2)c2cc(-c3ccc(N4CCOCC4)c(Cl)c3)ccc12 [QW-999],> 40 µM
8,CC(C)(COC(=O)C(Cl)Cl)NC(=O)c1nn(Cc2cc(Cl)cc(Cl)c2)c2cc(-c3ccc(N4CCOCC4)c(Cl)c3)ccc12 [QW-1000],> 40 µM
9,COC(=O)/C=C/C(=O)OCC(C)(C)NC(=O)c1nn(Cc2cc(Cl)cc(Cl)c2)c2cc(-c3ccc(N4CCOCC4)c(Cl)c3)ccc12 [QW-1001],> 40 µM
10,CC=CC(=O)OCC(C)(C)NC(=O)c1nn(Cc2cc(Cl)cc(Cl)c2)c2cc(-c3ccc(N4CCOCC4)c(Cl)c3)ccc12 [QW-1002],> 40 µM
11,CC(C)(COC(=O)CBr)NC(=O)c1nn(Cc2cc(Cl)cc(Cl)c2)c2cc(-c3ccc(N4CCOCC4)c(Cl)c3)ccc12 [QW-1004],3.8 µM
12,CC(C)(COC(=O)c1ccc(S(C)(=O)=O)c([N+](=O)[O-])c1)NC(=O)c1nn(Cc2cc(Cl)cc(Cl)c2)c2cc(-c3ccc(N4CCOCC4)c(Cl)c3)ccc12 [QW-1006],> 40 µM
